Laboratory results published in patent publication US20160101054A1, “SUSTAINED DELIVERY OF DRUGS FROM BIODEGRADABLE POLYMERIC MICROPARTICLES” (Yale University, priority 2008, published 2016).

Key:
[1] = test system: EGFR; details: in vivo; cited from earlier work
[2] = molecular target: T1, EGFR (Rattus norvegicus, UniProt G3V6K6); assay: Bioactivity of AG1478: western blot of phosphorylated EGFR in FR3T3 cells after EGF; type: cell-based; details: for bioactivity by western blot of activated EGFR: FR3T3 cells expressing EGFR at normal levels, concentration equal to IC50, EGF 100 ng/mL
T1 construct: cells expressing EGFR at normal levels; endogenous in cells; host or cells: FR3T3 (Fisher rat 3T3 fibroblasts)
Experimental: Microsphere size was ascertained using a Multisizer™ 3 Coulter Counter® and confirmed visually via SEM. […] Relative bioactivity was determined using the gray mean value for each phospho-EGFR band.

For `COc1cc2ncnc(Nc3cccc(Cl)c3)c2cc1OC` [AG1478], the “EGFR upregulation and activation of astrocytes, survival of RGCs” value [1] is listed as “reverses this upregulation and activation of astrocytes and increases the survival of RGCs”, the “bioactivity by western blot of activated EGFR” value ([2]; listed as non-encapsulated AG1478) is listed as 89±4.5% and the “bioactivity by western blot of activated EGFR” value ([2]; listed as non-encapsulated inhibitor) is listed as 89±2.7%. For the same compound, the “inhibition in FR3T3 cells” value ([2]; at 3 mM (~[…] polymer)) was “greater than 95%”.
